The values that follow come from US9181183B2, “Prostaglandin D synthase inhibitory piperidine compounds” (Taiho Pharmaceutical Co., Ltd., priority 2010, dated 2015).

Chain of human H-PGDS (O60760 whole entry): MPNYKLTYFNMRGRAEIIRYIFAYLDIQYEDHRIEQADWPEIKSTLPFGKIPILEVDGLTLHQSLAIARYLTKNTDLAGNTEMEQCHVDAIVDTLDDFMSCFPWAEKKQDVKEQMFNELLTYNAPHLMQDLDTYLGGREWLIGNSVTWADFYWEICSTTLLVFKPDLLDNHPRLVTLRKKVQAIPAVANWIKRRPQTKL

The first experiment addresses human H-PGDS (Homo sapiens, UniProt O60760). The experiment is described as follows: Hematopoietic prostaglandin D synthase (H-PGDS) inhibiting action, [14C]PGH2 to PGD2 conversion, TLC radioassay. The settings on record: compound 0.1 μM; inhibition rate relative to solvent control group; [14C] prostaglandin H2 10 μM, 25° C. The experiment is classed as biochemical. As for the experimental part: The test was carried out according to the method of Urade, Y. et al. (J. Biol. Chem., 262, 3820-3825, (1987)). More specifically, a reaction mixture (49 μL) containing 100 mM Tris-HCl (pH 8.0), 1 mM reduced form glutathione, 0.1 mg/mL γ-globulin, human H-PGDS (q.s.), and a compound (0.1 μM) was preincubated at 25° C. for 5 minutes. A DMSO solution (final concentration: 1%) was added to the solvent control group. Subsequently, 1 μL of [^14C] prostaglandin H2 (final concentration: 10 μM) was added to start the reaction. One minute after the start of the reaction, 250 μL of a reaction stopper solution (diethylether/methanol/1M citric acid (30/4/1)) cooled with ice was added to stop the reaction. After the reaction was stopped, 50 μL of the upper layer portion (organic solvent phase) was applied to a TLC plate and developed at −20° C. for 45 minutes (developing solvent: diethylether/methanol/acetic acid (90/2/1)). After the TLC plate was dried and exposed to an imaging plate for 1 to 24 hours, the radioactivity corresponding to prostaglandin D2 (PGD2) was analyzed using an image analyzer (produced by Fujifilm Corporation). The area (%) occupied by the PGD2 band per lane and the inhibition rate (%) of each Example compound at 0.1 μM relative to the control group in each experiment were calculated.
With “N-(4-(morpholin-1-yl-carbonyl)phenyl)-2-(4-(pyridin-2-ylmethylene)piperidine-1-carboxamido)thiazole-5-carboxamide [Example 19]”, the “H-PGDS inh. (% at 0.1 μM)” value worked out at 55.1%.

With “Phenyl 4-(4-(2,5-difluorobenzylidene)piperidine-1-carboxamido) piperidine-1-carboxylate [Example 39]”, the “H-PGDS inh. (% at 0.1 μM)” value came out at 62.9%.

For the molecule “N-(4-(2-(4-(pyridin-2-ylmethylene)piperidine-1-carboxamido)thiazol-5-yl)phenyl)morpholin-1-yl-carboxamide [Example 25]”, the “H-PGDS inh. (% at 0.1 μM)” value is given as 56.4%.

For the molecule “N-(4-(4-(morpholin-1-yl-carbonyl)piperidin-1-yl)phenyl)-2-(4-(pyridin-2-ylmethylene)piperidine-1-carboxamido)thiazole-5-carboxamide [Example 15]”, the “H-PGDS inh. (% at 0.1 μM)” value is on record as 68.6%.

The same experiment, now with this note: compound 0.1 μM; inhibition rate relative to solvent control group; [14C] prostaglandin H2 10 μM, 25° C.; read-out: H-PGDS inh. (% at 0.1 μM).
Consider `Cc1nccn1Cc1cnc(NC(=O)N2CCC(=Cc3cc(F)ccc3F)CC2)s1` [Example 82, 4-(2,5-difluorobenzylidene)-N-(5-((2-methyl-1H-imidazol-1-yl)methyl)thiazol-2-yl)piperidine-1-carboxamide], for which the inhibition at 0.1 µM turned out to be 82.7%.

As for `CN(C)C(=O)c1ccc(-c2ccc(NC(=O)N3CCC(=Cc4ccccn4)CC3)cn2)cc1` [Example 31, N-(6-(4-(dimethylcarbamoyl)phenyl)pyridin-3-yl)-4-(pyridin-2-ylmethylene)piperidine-1-carboxamide], the inhibition at 0.1 µM turned out to be 52.9%.

Regarding `CC(F)(F)C(=O)N1CCC(NC(=O)N2CCC(=Cc3cc(F)ccc3F)CC2)CC1` [Example 40, 4-(2,5-difluorobenzylidene)-N-(1-(2,2-difluoropropanoyl)piperidin-4-yl)piperidine-1-carboxamide], the inhibition at 0.1 µM was 71.4%.

For `CC(C)(C)C(=O)N1CCC(NC(=O)N2CCC(=Cc3cc(F)ccc3F)CC2)CC1` [Example 46, 4-(2,5-difluorobenzylidene)-N-(1-pivaloylpiperidin-4-yl)piperidine-1-carboxamide], the inhibition at 0.1 µM was 77.3%.

Regarding `O=C(Nc1nccs1)c1ccc(-c2ccc(NC(=O)N3CCC(=Cc4ccccn4)CC3)cn2)cc1` [Example 29, 4-(pyridin-2-ylmethylene)-N-(6-(4-(thiazol-2-ylcarbamoyl)phenyl)pyridin-3-yl)piperidine-1-carboxamide], the inhibition at 0.1 µM came out at 78.8%.

With `COC(=O)c1ccc(N2CCC(NC(=O)N3CCC(=Cc4cc(F)ccc4F)CC3)CC2)cc1` [Example 41, Methyl 4-(4-(4-(2,5-difluorobenzylidene)piperidine-1-carboxamido)piperidin-1-yl)benzoate], the inhibition at 0.1 µM is 59%.

Consider `O=C(Nc1ccc(CCn2ccnn2)cc1)c1cnc(NC(=O)N2CCC(=Cc3ccccn3)CC2)s1` [Example 14, N-(4-(2-(1H-1,2,3-triazol-1-yl)ethyl)phenyl)-2-(4-(pyridin-2-ylmethylene)piperidine-1-carboxamido)thiazole-5-carboxamide], for which the inhibition at 0.1 µM turned out to be 53.9%.

Consider `O=C(NC1CCN(C(=O)C2CCCCC2)CC1)N1CCC(=Cc2cc(F)ccc2F)CC1` [Example 49, N-(1-(cyclohexanecarbonyl)piperidin-4-yl)-4-(2,5-difluorobenzylidene)piperidine-1-carboxamide], for which the inhibition at 0.1 µM came to 39.6%.

Turning to `Nc1ccc2nc(NC(=O)N3CCC(=Cc4ccccn4)CC3)sc2c1` [Example 10, N-(6-aminobenzo[d]thiazol-2-yl)-4-(pyridin-2-ylmethylene)-piperidine-1-carboxamide], the inhibition at 0.1 µM stood at 61.9%.

With `O=C(Nc1ncc(C(=O)N2CCOCC2)s1)N1CCC(=Cc2cc(F)ccc2F)CC1` [Example 58, 4-(2,5-difluorobenzylidene)-N-(5-(morpholine-4-carbonyl)thiazol-2-yl)piperidine-1-carboxamide], the inhibition at 0.1 µM worked out at 80.8%.

Consider `COc1ncccc1-c1ccc2nc(NC(=O)N3CCC(=Cc4ccccn4)CC3)sc2c1` [Example 9, N-(6-(2-methoxypyridin-3-yl)-benzo[d]thiazol-2-yl)-4-(pyridin-2-ylmethylene)-piperidine-1-carboxamide], for which the inhibition at 0.1 µM was determined as 76.6%.

Consider `O=C(O)c1ccc(-c2ccc(NC(=O)N3CCC(=Cc4ccccn4)CC3)cn2)cc1` [Example 28, 4-(5-(4-(pyridin-2-ylmethylene)piperidine-1-carboxamido)pyridin-2-yl)benzoic acid], for which the inhibition at 0.1 µM worked out at 53.2%.

For the molecule `O=C(NC1CCN(CC(F)(F)F)CC1)N1CCC(=Cc2cc(F)ccc2F)CC1` [Example 35, 4-(2,5-difluorobenzylidene)-N-(1-(2,2,2-trifluoroethyl)piperidin-4-yl)piperidine-1-carboxamide], the inhibition at 0.1 µM is 77.2%.

For `O=C(Nc1cnc2ccccc2c1)N1CCC(=Cc2ccccn2)CC1` [Example 85, 4-(pyridin-2-ylmethylene)-N-(quinolin-3-yl)piperidine-1-carboxamide], the inhibition at 0.1 µM amounted to 35%.

For `O=C(Nc1ncc(C(=O)N2CCCCC2)s1)N1CCC(=Cc2ccccn2)CC1` [Example 17, N-(5-(piperidin-1-yl-carbonyl)thiazol-2-yl)-4-(pyridin-2-ylmethylene)piperidine-1-carboxamide], the inhibition at 0.1 µM came to 65%.

Turning to `O=C(NC1CCN(C(=O)c2cccs2)CC1)N1CCC(=Cc2cc(F)ccc2F)CC1` [Example 54, 4-(2,5-difluorobenzylidene)-N-(1-(thiophene-2-carbonyl)piperidin-4-yl)piperidine-1-carboxamide], the inhibition at 0.1 µM came out at 85.9%.

With `O=C(NC1CC1)c1ccc(-c2ccc(NC(=O)N3CCC(=Cc4ccccn4)CC3)cn2)cc1` [Example 30, N-(6-(4-(cyclopropylcarbamoyl)phenyl)pyridin-3-yl)-4-(pyridin-2-ylmethylene)piperidine-1-carboxamide], the inhibition at 0.1 µM is 67.1%.

`O=C(NC1CCN(c2ccc(CCn3ccnn3)cc2)CC1)N1CCC(=Cc2cc(F)ccc2F)CC1` [Example 34, N-(1-(4-(2-(1H-1,2,3-triazol-1-yl)ethyl)phenyl)piperidin-4-yl)-4-(2,5-difluorobenzylidene)piperidine-1-carboxamide]: the inhibition at 0.1 µM stood at 77.8%.

For `O=C(O)c1ccc(NC(=O)c2cnc(NC(=O)N3CCC(=Cc4ccccn4)CC3)s2)cc1` [Example 18, 4-(2-(4-(pyridin-2-ylmethylene)piperidine-1-carboxamido)thiazole-5-carboxamido)benzoic acid], the inhibition at 0.1 µM came to 65.1%.

Regarding `O=C(Nc1ccc(NC(=O)N2CCC(=Cc3cc(F)ccc3F)CC2)cc1)c1ccsc1` [Example 76, 4-(2,5-difluorobenzylidene)-N-(4-(thiophene-3-carboxamido)phenyl)piperidine-1-carboxamide], the inhibition at 0.1 µM came to 79.4%.

For the molecule `O=C(Nc1ccc(N2CCCCC2)cc1)c1cnc(NC(=O)N2CCC(=Cc3ccccn3)CC2)s1` [Example 16, N-(4-(piperidin-1-yl)phenyl)-2-(4-(pyridin-2-ylmethylene)piperidine-1-carboxamido)thiazole-5-carboxamide], the inhibition at 0.1 µM was 52.7%.

Consider `O=C(NC1CCN(C(=O)N2CCCCC2)CC1)N1CCC(=Cc2cc(F)ccc2F)CC1` [Example 57, 4-(2,5-difluorobenzylidene)-N-(1-(piperidine-1-carbonyl)piperidin-4-yl)piperidine-1-carboxamide], for which the inhibition at 0.1 µM turned out to be 62.3%.
